The values below are quoted from earlier work in paper PMC10114980, “Triple targeting of mutant EGFR^L858R/T790M, COX-2, and 15-LOX: design and synthesis of novel quinazolinone tethered phenyl urea derivatives for anti-inflammatory and anticancer evaluation” (Journal of Enzyme Inhibition and Medicinal Chemistry, 2023).

The structures appear in SMILES notation. pIC50: −log10 of the molar value.

The test system of the data set is EGFR. The settings on record: Figure 2; cited from earlier work.

With `O=C(CNc1ccc(Cl)cc1)Cn1c(-c2ccccc2)nc2ccccc2c1=O` [G], the pIC50 (usually the IC50 on a negative log10 scale, so that one unit is a factor of ten) is 7.09.
As to `Cc1cccc(Cl)c1NC(=O)Nc1ccc(-c2nc(NCCN(C)C)c3ccccc3n2)cc1` [I], the negative logarithm of the IC50 (pIC50) is 7.25.
